Laboratory results from PMC12670405, “Second-Generation AURKA-Targeting PROTACs: Structural Optimization toward in Vivo Degradation in Neuroblastoma” (Journal of Medicinal Chemistry, 2025).
Read-outs that look alike come from different tables or passages of the source.

Tests used:
NGP = experiment: IncuCyte live-cell imaging, antiproliferative effect; format: cell-based; conditions: Homo sapiens, 72 h
Source text: Human neuroblastoma cell lines NGP, IMR-32, SJNB-8, SK-N-BE(2)-C, SJNB-1, SK-N-SH and SK-N-AS, as well as benign immortalized cell lines RPE and HEK293T were either bought commercially or obtained through research laboratories. […] Screening for mycoplasma contamination occurred routinely on the cells. Human neuroblastoma cell lines SH-SY5Y_shABCB1 & SH-SY5Y_shNTC were generated by transduction with pLKO.1-ABCB1_TRCN0000059683 shRNA (Sigma MISSION SHCLND) or pLKO.1-puro NT shRNA (Sigma MISSION SHC002) vectors respectively (Supplementary Table S6), packaged using Lenti-X293T (Clontech). Transduced cells were selected with 2 μg/mL puromycin. These cells were cultured in DMEM 4.5 g/L D-Glucose, L-Glutamine and 110 mg/L Sodium Pyruvate (Gibco, #11995065) supplemented with 10% fetal bovine serum, 1× Antibiotic-Antimycotic solution (Sigma-Aldrich, #A5955) and 1× MEM nonessential amino acids (Sigma-Aldrich, #M7145). Incubation of all cells occurred at 37 °C and 5% CO2.
Neuroblastoma cells were seeded in 384-well plates at different densities ranging from 1200 to 5000 cells/well and allowed to adhere overnight. RPE and HEK293T were seeded at 200 and 600 cells/well, respectively. Compound treatment was performed using the D300e Digital Dispenser (Tecan) in duplicate or triplicate and cell confluency was monitored over time using the IncuCyte Live-cell imaging system (Sartorius). […] Mean normalized confluences were calculated from 3 individual experiments.
All dose–response curves were computed on GraphPad Prism using the Variable Slope (four parameters) equation. Absolute half-maximal degradation (DC50), growth inhibitory (GI50) and enzymatic inhibitory (IC50) concentrations, as well as inhibition constants (Ki) were derived from dose–response curves via interpolation. Statistical tests were performed on GraphPad Prism and detailed in the figure legends. Unless otherwise stated, “n” in the figure legends indicates the number of independent experiments conducted at different times.

AURKA = biological target: T1, AURKA (Homo sapiens, UniProt O14965); experiment: AURKA degradation, Simple Western; format: cell-based; design: Representative Western blot showing levels of endogenous proteins MDR1, MYCN, AURKA, and CRBN in untreated cell lines; endogenous in cells; host or cells: NGP, IMR-32, SJNB-8, SK-N-BE(2)-C, SK-N-SH, SK-N-AS, SJNB-1, RPE, HEK293T; conditions: for pDC50: AURKA degradation; for DC50: read-out: AURKA DC50; for AURKA degradation activity (in words): NGP, 24 h treatment;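 as to AURKA Degradation 24h @1000nM: measured in NGP neuroblastoma cells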;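 as to AURKA Degradation 24h @100nM: measured in NGP neuroblastoma cells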
T1 sequence (O14965 1-403): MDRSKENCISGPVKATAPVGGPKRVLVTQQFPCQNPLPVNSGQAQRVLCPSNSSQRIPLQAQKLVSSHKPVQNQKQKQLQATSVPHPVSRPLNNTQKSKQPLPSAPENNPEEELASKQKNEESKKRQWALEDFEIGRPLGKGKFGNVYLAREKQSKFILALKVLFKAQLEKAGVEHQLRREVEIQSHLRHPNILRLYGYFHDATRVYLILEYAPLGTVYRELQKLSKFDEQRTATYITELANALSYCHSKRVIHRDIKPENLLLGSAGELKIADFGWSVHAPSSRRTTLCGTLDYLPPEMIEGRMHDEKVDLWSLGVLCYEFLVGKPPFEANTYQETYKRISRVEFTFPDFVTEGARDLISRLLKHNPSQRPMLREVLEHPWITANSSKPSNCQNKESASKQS
Protocol: Cells were seeded in T-25 flasks at different densities ranging from 1 to 2 million cells per flask and allowed to adhere for 1–2 days. In experiments involving compound treatment, this was done by medium replacement containing the compound(s) of interest in their corresponding concentrations. In competition binding experiments, cells were first pretreated with an excess of MK-5108, thalidomide or MG-132 for 1 h by shaking gently at room temperature prior to addition of SK4454 or SK5527. All samples were normalized to contain the same percentage of DMSO as the negative DMSO controls. Cells were harvested on ice at their respective time points by scraping, washed with ice-cold PBS to collect remaining cells, and centrifuged (2500 rpm, 4 °C). A second washing and centrifugation step was performed prior to collection of the final cell pellets which were then snap-frozen in liquid nitrogen and kept frozen at −80 °C until further processing. Lysis of cell pellets occurred in cold RIPA buffer (0.5% w/v Sodium Deoxycholate, 150 mM NaCl, 50 mM TrisHCl pH 7.5, 0.1% w/v SDS, 1% w/v NP-40) supplemented with protease and phosphatase inhibitors (Roche, #11836145001, #04906845001) by rotating gently at 4 °C for 1h, followed by a centrifugation step for 10 min (10,000 rpm, 4 °C). The supernatant was collected and concentrations of the obtained protein lysates were measured using the Pierce BCA Protein Assay Kit (Thermo Fisher Scientific, #23227).
Simple Western analyses were performed with the Wes instrument (Bio-Techne) using the 12–230 kDa Wes Separation module and the EZ standard pack reagent 1 (Biotechne, #SM-W001, #PS-ST01EZ-8) following the manufacturer’s protocol. Protein lysates were loaded at 0.8 μg/μL under denaturing conditions (0.2 μg/μL for MYCN detection). Chemiluminescence peaks were generated by the Compass Software (Bio-Techne) and the area under the peaks calculated using the Gaussian fit method. Per lane, quantified data were always normalized to that of the loading control (Vinculin) prior to calculating fold changes relative to the negative DMSO control. Mean fold changes are calculated from 3 individual experiments. A list of the primary and secondary antibodies used can be found in the Supporting Information (Supplementary Table S7).
Graphs were generated using GraphPad Prism Software (version 10.1.2) or RStudio (R-4.3.2). All dose–response curves were computed on GraphPad Prism using the Variable Slope (four parameters) equation. Absolute half-maximal degradation (DC50), growth inhibitory (GI50) and enzymatic inhibitory (IC50) concentrations, as well as inhibition constants (Ki) were derived from dose–response curves via interpolation. Statistical tests were performed on GraphPad Prism and detailed in the figure legends. Unless otherwise stated, “n” in the figure legends indicates the number of independent experiments conducted at different times.

SMILES	GI50 (NGP; read-out: GI50 72h, 72h)	GI50 (NGP; read-out: pGI50 (converted))	AURKA Degradation 24h @100nM (AURKA)	AURKA Degradation 24h @1000nM (AURKA)	pDC50 (AURKA)	DC50 (AURKA)	AURKA degradation activity (in words) (AURKA)
O=C1CCC(N2C(=O)c3cccc(N4CCN(C(=O)COCCOCCNC(=O)[C@]5(Cc6cccc(Nc7nccs7)n6)CC[C@@H](Oc6cccc(Cl)c6F)CC5)CC4)c3C2=O)C(=O)N1 (some centres unmarked) [PROTAC 2]	72 nM	72.4 nM	70	81	–	–	–
O=C1CCC(N2C(=O)c3ccc(N4CCN(C(=O)CNC(=O)[C@]5(Cc6cccc(Nc7nccs7)n6)CC[C@@H](Oc6cccc(Cl)c6F)CC5)CC4)cc3C2=O)C(=O)N1 (some centres unmarked) [PROTAC 5]	51 nM	51.3 nM	76	75	–	–	–
O=C1CCC(N2C(=O)c3ccc(N4CCN(CCOCCNC(=O)[C@]5(Cc6cccc(Nc7nccs7)n6)CC[C@@H](Oc6cccc(Cl)c6F)CC5)CC4)cc3C2=O)C(=O)N1 (some centres unmarked) [PROTAC 6]	64 nM	63.1 nM	76	82	–	–	–
O=C1CCC(N2C(=O)c3ccc(N4CCN(C(=O)COCCNC(=O)[C@]5(Cc6cccc(Nc7nccs7)n6)CC[C@@H](Oc6cccc(Cl)c6F)CC5)CC4)cc3C2=O)C(=O)N1 (some centres unmarked) [PROTAC 7]	112 nM	112 nM	68	77	–	–	–
O=C1CCC(N2C(=O)c3ccc(N4CCN(CCOCCOCCNC(=O)[C@]5(Cc6cccc(Nc7nccs7)n6)CC[C@@H](Oc6cccc(Cl)c6F)CC5)CC4)cc3C2=O)C(=O)N1 (some centres unmarked) [PROTAC 8]	56 nM	56.2 nM	76	75	–	–	–
O=C1CCC(N2C(=O)c3ccc(N4CCN(C(=O)COCCOCCNC(=O)[C@]5(Cc6cccc(Nc7nccs7)n6)CC[C@@H](Oc6cccc(Cl)c6F)CC5)CC4)cc3C2=O)C(=O)N1 (some centres unmarked) [PROTAC 9]	112 nM	112 nM	64	83	–	–	–
O=C1CCC(N2C(=O)c3ccc(OCCN4CCN(C(=O)[C@]5(Cc6cccc(Nc7nccs7)n6)CC[C@@H](Oc6cccc(Cl)c6F)CC5)CC4)cc3C2=O)C(=O)N1 (some centres unmarked) [PROTAC 10]	52 nM	52.5 nM	72	80	–	–	–
O=C1CCC(N2C(=O)c3ccc(OCCOCCN4CCN(C(=O)[C@]5(Cc6cccc(Nc7nccs7)n6)CC[C@@H](Oc6cccc(Cl)c6F)CC5)CC4)cc3C2=O)C(=O)N1 (some centres unmarked) [PROTAC 11]	38 nM	38 nM	78	80	8,31	4.9 nM	–
O=C1CCC(Nc2ccc(N3CCN(C(=O)[C@]4(Cc5cccc(Nc6nccs6)n5)CC[C@@H](Oc5cccc(Cl)c5F)CC4)CC3)cc2)C(=O)N1 (some centres unmarked) [PROTAC 12]	715 nM	708 nM	12	< 0	–	–	failed to reduce AURKA levels and instead led to its upregulation
O=C1CCC(Nc2ccc(N3CCN(CCNC(=O)[C@]4(Cc5cccc(Nc6nccs6)n5)CC[C@@H](Oc5cccc(Cl)c5F)CC4)CC3)cc2)C(=O)N1 (some centres unmarked) [PROTAC 13]	30 nM	29.5 nM	68	91	7,9	12.5 nM	–
O=C1CCC(Nc2ccc(N3CCN(C(=O)COCCNC(=O)[C@]4(Cc5cccc(Nc6nccs6)n5)CC[C@@H](Oc5cccc(Cl)c5F)CC4)CC3)cc2)C(=O)N1 (some centres unmarked) [PROTAC 15]	93 nM	93.3 nM	38	55	–	–	only weak AURKA-degrading activity
O=C1CCC(Nc2ccc(N3CCN(C(=O)COCCOCCNC(=O)[C@]4(Cc5cccc(Nc6nccs6)n5)CC[C@@H](Oc5cccc(Cl)c5F)CC4)CC3)cc2)C(=O)N1 (some centres unmarked) [PROTAC 16]	78 nM	77.6 nM	39	75	–	–	only weak AURKA-degrading activity
O=C1CCC(Nc2ccc(N3CCN(CC4CN(C(=O)[C@]5(Cc6cccc(Nc7nccs7)n6)CC[C@@H](Oc6cccc(Cl)c6F)CC5)C4)CC3)cc2)C(=O)N1 (some centres unmarked) [PROTAC 17]	39 nM	38.9 nM	59	88	7,29	51.1 nM	–
O=C1CCC(Nc2ccc(N3CCN(CC4CCN(C(=O)[C@]5(Cc6cccc(Nc7nccs7)n6)CC[C@@H](Oc6cccc(Cl)c6F)CC5)CC4)CC3)c(F)c2)C(=O)N1 (some centres unmarked) [PROTAC 19]	53 nM	52.5 nM	83	93	–	–	–
